Source: ChEMBL document CHEMBL1201862, “PubChem BioAssay data set” (2004)
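A five-concentration, 48-hour dose response in 96-well plates underlies each endpoint, interpolated linearly between surrounding concentrations. GI50 = concentration required for 50% inhibition of growth.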 The source made the active and inactive calls. No stated cut-off is given here; in the data, active = GI50 up to about 1.1 µM and inactive = higher.

Experiments:
Assay in all cases: NCI tumour cell line growth inhibition, 48 h
CAKI-1 = test system: CAKI-1
DU-145 = test system: DU-145
EKVX = test system: EKVX
HCC 2998 = test system: HCC 2998
HCT-116 = test system: HCT-116
IGROV-1 = test system: IGROV-1
KM12 = test system: KM12
LOX IMVI = test system: LOX IMVI
MCF7 = test system: MCF7
MDA-MB-435 = test system: MDA-MB-435
NCI-H23 = test system: NCI-H23
PC-3 = test system: PC-3
SF-295 = test system: SF-295
SK-MEL-2 = test system: SK-MEL-2
SK-MEL-5 = test system: SK-MEL-5
SNB-19 = test system: SNB-19
SNB-75 = test system: SNB-75
SR = test system: SR
U-251 = test system: U-251
XF498 = test system: XF498

Structure (SMILES)	GI50 (CAKI-1)	GI50 (DU-145)	GI50 (EKVX)	GI50 (HCC 2998)	GI50 (HCT-116)	GI50 (IGROV-1)	GI50 (KM12)	GI50 (LOX IMVI)	GI50 (MCF7)	GI50 (MDA-MB-435)	GI50 (NCI-H23)	GI50 (PC-3)	GI50 (SF-295)	GI50 (SK-MEL-2)	GI50 (SK-MEL-5)	GI50 (SNB-19)	GI50 (SNB-75)	GI50 (SR)	GI50 (U-251)	GI50 (XF498)
Cc1cc2c(=Cc3ccc(N(C)C)cc3)c3ccccc3n2[n+]1C	3.3 µM (inactive)	0.713 µM (active)	1.02 µM (active)	0.256 µM (active)	0.365 µM (active)	1.52 µM (inactive)	0.385 µM (active)	0.458 µM (active)	0.396 µM (active)	0.424 µM (active)	0.497 µM (active)	0.44 µM (active)	1.05 µM (active)	0.652 µM (active)	0.414 µM (active)	0.415 µM (active)	0.409 µM (active)	0.0865 µM (active)	0.203 µM (active)	–
Cc1c(/C=N/NC(=O)c2cc(Br)cc(Br)c2O)c(=O)n(-c2ccccc2)n1C	25.2 µM (inactive)	–	> 100 µM (inactive)	> 100 µM (inactive)	56.4 µM (inactive)	1.22 µM (inactive)	33.8 µM (inactive)	6.53 µM (inactive)	–	–	77.3 µM (inactive)	–	> 100 µM (inactive)	> 100 µM (inactive)	51.6 µM (inactive)	> 100 µM (inactive)	> 100 µM (inactive)	–	69 µM (inactive)	17.6 µM (inactive)
COC1=CC(=O)C2C(C1=O)[C@@H]1c3ccccc3OC(C)(C)[C@H]21 (stereo partly drawn)	16.4 µM (inactive)	–	31.9 µM (inactive)	> 100 µM (inactive)	16.2 µM (inactive)	> 10 µM (inactive)	68.1 µM (inactive)	14.2 µM (inactive)	–	–	17.5 µM (inactive)	–	71 µM (inactive)	26.3 µM (inactive)	27.4 µM (inactive)	7.73 µM (inactive)	10.6 µM (inactive)	–	53.2 µM (inactive)	18.1 µM (inactive)
COC(=O)C1(CCC(=O)N(C)c2ccccc2)NNC2C(=O)N(c3ccccc3)C(=O)C21 (stereo not drawn)	> 10 µM (inactive)	> 10 µM (inactive)	> 10 µM (inactive)	> 10 µM (inactive)	> 10 µM (inactive)	> 10 µM (inactive)	> 10 µM (inactive)	> 10 µM (inactive)	> 10 µM (inactive)	> 10 µM (inactive)	> 10 µM (inactive)	> 10 µM (inactive)	> 10 µM (inactive)	> 10 µM (inactive)	> 10 µM (inactive)	> 10 µM (inactive)	> 10 µM (inactive)	> 10 µM (inactive)	> 10 µM (inactive)	–
